The source of these data is article PMC3888718, “F-18 Labeled Vasoactive Intestinal Peptide Analogue in the PET Imaging of Colon Carcinoma in Nude Mice” (BioMed Research International, 2013).

Where two headings read alike, the source gives them in different places. Where a SMILES comes first, the peptide text is derived from it. The star is where a group is joined. Benzoyl(4-F) = O=C(c1ccc(F)cc1)*

The conditions of series [1]: cited from earlier work. The text has this:
(§1) Since Virgolin initially reported use of ^123I labeled VIP in the imaging study of tumor VIP receptors, several potential ^123I, ^99 mTc, F-18, and ^64Cu labeled VIP analogues have been developed. […] Therefore, our early efforts mainly focused on the structural modification for improving in vivo stability of VIP polypeptide and a series of studie ...

The test system of the next series is VIP receptor. Particulars: cited from earlier work.
Description: as §1

Series [2] can be described thus: micro-PET imaging in C26 tumor bearing mice. In kind it is in vivo. To be noted: nude mice, tumor and muscle, total radioactivity, micro-PET; for tissue to tissue ratio at 1 h: 60 min after injection. How it is done:
(§2) C26 tumor bearing mice were obtained by right subaxillary implantation and were used in PET imaging test when the tumor had grown to the size of about 1 cm. PET imaging test in small animals was performed on a micro-PET R4 scanner (Concorde Microsystems, Siemens, Germany). After sodium pentobarbital anesthesia, C26 tumor bearing mice were injected with 1.5 MBq (40 μCi) [F-18]FB-[R^8,15,21, L^17]-VIP and placed in the central zone of the micro-PET device separately at 5 min, 60 min, and 120 min following injection. They underwent static scanning for 10 min at different points. The original data obtained were transformed into 2D image by Fourier transform and 2D FBP reconstruction.
(§3) Blocking experiment was conducted to explore whether [F-18]FB-[R^8,15,21, L^17]-VIP was receptor-specific. 100 μg of nonlabeled VIP polypeptide mixed with 40 μCi [F-18]FB-[R^8,15,21, L^17]-VIP was injected into each C26 tumor bearing mouse. The imaging experiment with blocking was performed 60 min following injection, using scanning for 10 min and the same procedures and data treatment process as above.

Another series relates to C26 colon carcinoma. Description: micro-PET imaging in C26 tumor bearing mice. It is filed as in vivo. Particulars: micro-PET images, C26 tumor bearing mice. As to the method:
as §2, §3

The nature of series [3]: tissue distribution test in normal BALB/C mice. To be noted: 100 μCi tail vein, 5-120 min, γ counter, n = 5 per group. It is filed as in vivo. As to the method: All animal experiments followed the laboratory animal specifications of Zhongshan Hospital, Fudan University. In order to obtain preliminary in vivo pharmacokinetics data of this radiolabeled polypeptide, 100 μL 3.7 MBq (100 μCi) [F-18]FB-[R^8,15,21, L^17]-VIP was injected into each normal BALB/C mouse through tail vein. 20 mice were assigned to 4 groups evenly. At 5, 30, 60, and 120 min following injection, they were sacrificed under anesthesia. Mice in each group were immediately subject to autopsy, where the organs and tissues of interest, including brain, liver, kidneys, heart, lungs, spleen, stomach, small intestine, muscles, bones, and blood, were collected. All the tissue samples were weighed and their counting were measured by γ counter, so that the percent injected dose per each gram of tissue (% ID/g) was derived.

The subject of series [4] is colon carcinoma cells LS174T. Particulars: mouse, in vivo; cited from earlier work. An excerpt: Like other neuropeptides, VIP is quickly metabolized in liver and excreted from kidneys. Given this, when VIP is to be used as an imaging agent, chemical modification of its structure is mandatory to extend the biological half-life in order to meet the imaging requirement. […] Pallela et al. labeled VIP analogue (TP3654) by ^99mTc and conducted animal distribution and imaging tests in nude mice transpla ...

“H-HSDAVFTRNYTRLRRQLAVKRYLNSILN-NH2 [[R^8,15,21, L^17]-VIP, VIP analogue, 28-residue peptide amide, precursor for F-18 labeling]”: in series [1], the “in vivo stability in comparison to native VIP” value is given as “higher”. In the series on VIP receptor, the “receptor affinity in comparison to native VIP” value is “higher”.

`CC[C@H](C)[C@H](NC(=O)[C@H](CO)NC(=O)[C@H](CC(N)=O)NC(=O)[C@H](CC(C)C)NC(=O)[C@H](Cc1ccc(O)cc1)NC(=O)[C@H](CCCNC(=N)N)NC(=O)[C@H](CCCCNC(=O)c1ccc(F)cc1)NC(=O)[C@@H](NC(=O)[C@H](C)NC(=O)[C@H](CC(C)C)NC(=O)[C@H](CCC(N)=O)NC(=O)[C@H](CCCNC(=N)N)NC(=O)[C@H](CCCNC(=N)N)NC(=O)[C@H](CC(C)C)NC(=O)[C@H](CCCNC(=N)N)NC(=O)[C@@H](NC(=O)[C@H](Cc1ccc(O)cc1)NC(=O)[C@H](CC(N)=O)NC(=O)[C@H](CCCNC(=N)N)NC(=O)[C@@H](NC(=O)[C@H](Cc1ccccc1)NC(=O)[C@@H](NC(=O)[C@H](C)NC(=O)[C@H](CC(=O)O)NC(=O)[C@H](CO)NC(=O)[C@@H](N)Cc1c[nH]cn1)C(C)C)[C@@H](C)O)[C@@H](C)O)C(C)C)C(=O)N[C@@H](CC(C)C)C(=O)N[C@@H](CC(N)=O)C(N)=O` [[F-18]FB-[R^8,15,21, L^17]-VIP] (H-HSDAVFTRNYTRLRRQLAVK(Benzoyl(4-F))RYLNSILN-NH2; N-terminus assumed): the tissue to tissue ratio at 5 min in series [2] (mouse, iv, 40 uCi, C26 tumor bearing mice, 40 μCi i.v., 5 min after injection, 10 min static scan, read-out: tumor-to-muscle ratio (T/M)) was determined as 1.84. In addition, the tissue to tissue ratio at 1 h is 3.03 in series [2] (mouse, iv, 40 uCi, C26 tumor bearing mice, 40 μCi, unblocked, read-out: tumor-to-muscle ratio (T/M)) and 1.01 in series [2] (C26 tumor bearing mouse, 40 μCi mixed with 100 μg nonlabeled VIP, read-out: tumor-to-muscle ratio (T/M), blocking experiment). Besides, the tissue to tissue ratio at 2 h in series [2] (mouse, iv, 40 uCi, C26 tumor bearing mice, 40 μCi, 120 min after injection, read-out: tumor-to-muscle ratio (T/M)) turned out to be 3.74. Moreover, the “passage through the blood-brain barrier” value in the series on C26 colon carcinoma is listed as “could not pass through the blood-brain barrier”. The “bone absorption (in vivo defluorination stability)” value in the series with C26 colon carcinoma (up until 120 min) is given as “no marked bone absorption”. For the same compound, the “bone absorption (defluorination stability)” value in series [3] is given as “low bone absorption”.

Turning to “^125I-VIP: ^125I labeled vasoactive intestinal peptide”, in series [4], the “tumor/blood ratio (T/B)” value is given as 0.88 ± 0.16 and the “tumor/muscle ratio (T/M)” value is given as 0.38 ± 0.56.
